{"source": "patent US20240041840A1", "about": "(Areteia Therapeutics, Inc., priority 2020, published 2024)", "system": "subjects with eosinophilic asthma", "description": "Pulmonary function is measured by performing a spirometry, which measures forced expiratory volume in is (FEV1), the volume of air moved in the first second of exhalation, this is a well-accepted measure of asthma. Forced vital capacity (FVC) is the total volume of air exhaled during the entire forced expiratory volume (FEV) test. The FEV1/FVC ratio is a calculated measure that may provide a more specific measure of bronchoconstriction, independent of processes such as air trapping. Pulmonary function testing can be tested pre-bronchodilator (after waiting a sufficient time so that all bronchodilator medications have cleared) or post-bronchodilator, typically 15-30 minutes after inhaling a short-acting bronchodilator, such as albuterol. Bronchodilator reversibility (BDR) is calculated and assessed by analyzing FEV1 pre- and post-bronchodilator, and calculating the change both as absolute (ml) and percentage change.\nEvaluation of Efficacy: Blood eosinophil count, changes in pulmonary function (FEV1), Asthma Control Questionnaire (ACQ-6), Asthma Control Questionnaire (ACQ-7), Asthma Quality of Life Questionnaire (AQLQ), exhaled nitric oxide, pharyngeal and nasal eosinophil peroxidase were collected periodically during the study.\nTo control the alpha level for testing 3 dose groups versus placebo for the primary endpoint and for testing FEV1, a closed hierarchical testing procedure was used in the following order: 1. First, the 300 mg/day dose group was tested versus placebo for change in blood absolute eosinophil count, and if this reached the <0.05 level then, 2. the 150 mg/day dose group was tested versus placebo at the 0.05 level for change in blood absolute eosinophil count, and if this reached the <0.05 level then, 3. the pooled 150 and 300 mg/day dose groups were tested versus placebo at the 0.05 level for change in FEV1 at Week 12, then 4. the 75 mg/day dose group was tested versus placebo at the 0.05 level for change in blood absolute eosinophil count, and if this reached the <0.05 level.", "key": {"[1]": {"settings": "75 mg/day, Table 6D, timepoint printed as Analysis Baseline*"}, "[2]": {"settings": "75 mg/day, Table 6D, timepoint printed as Week 4"}, "[3]": {"settings": "150 mg/day, Table 6D, timepoint printed as Analysis Baseline*"}, "[4]": {"settings": "150 mg/day, Table 6D, timepoint printed as Week 4"}}, "note": "Read-outs that look alike come from different tables or passages of the source."}
{"smiles": "CCCN[C@@H]1CCc2nc(N)sc2C1", "note": "[dexpramipexole, (6R)-2-amino-4,5,6,7-tetrahydro-6-(propylamino) benzothiazole]", "values": [{"measurement": "Pre-Bronchodilator FEV1 % change, mean", "setting": "[1]", "result": 12.0, "unit": "%"}, {"measurement": "Pre-Bronchodilator FEV1 % change, median", "setting": "[1]", "result": 10.7, "unit": "%"}, {"measurement": "Pre-Bronchodilator FEV1 change, mean", "setting": "[1]", "result": 0.237, "unit": "L"}, {"measurement": "Pre-Bronchodilator FEV1 change, median", "setting": "[1]", "result": 0.170, "unit": "L"}, {"measurement": "Pre-Bronchodilator FEV1 observed, mean", "setting": "[1]", "result": 228, "unit": "L"}, {"measurement": "Pre-Bronchodilator FEV1 observed, median", "setting": "[1]", "result": 2.24, "unit": "L"}, {"measurement": "Pre-Bronchodilator FEV1 % change, mean", "setting": "[2]", "result": 9.27, "unit": "%"}, {"measurement": "Pre-Bronchodilator FEV1 % change, median", "setting": "[2]", "result": 5.48, "unit": "%"}, {"measurement": "Pre-Bronchodilator FEV1 change, mean", "setting": "[2]", "result": 0.207, "unit": "L"}, {"measurement": "Pre-Bronchodilator FEV1 change, median", "setting": "[2]", "result": 0.115, "unit": "L"}, {"measurement": "Pre-Bronchodilator FEV1 observed, mean", "setting": "[2]", "result": 2.24, "unit": "L"}, {"measurement": "Pre-Bronchodilator FEV1 observed, median", "setting": "[2]", "result": 2.08, "unit": "L"}, {"measurement": "FEV1 change from Baseline LSM", "setting": "75 mg/day, Week 4", "result": 0.150, "unit": "L"}, {"measurement": "FEV1 difference versus Placebo LSM", "setting": "75 mg/day, Week 4", "result": 0.165, "unit": "L"}, {"measurement": "Pre-Bronchodilator FEV1 % change, median", "setting": "75 mg/day, Week 4", "result": 4.85, "unit": "%"}, {"measurement": "Pre-Bronchodilator FEV1, % change from Baseline, mean", "setting": "75 mg/day, Week 4", "result": 6.25, "unit": "%"}, {"measurement": "Pre-Bronchodilator FEV1 change, mean", "setting": "75 mg/day, Week 4", "result": 0.130, "unit": "L"}, {"measurement": "Pre-Bronchodilator FEV1 change, median", "setting": "75 mg/day, Week 4", "result": 0.0750, "unit": "L"}, {"measurement": "Pre-Bronchodilator FEV1 observed, mean", "setting": "75 mg/day, Week 4", "result": 2.10, "unit": "L"}, {"measurement": "Pre-Bronchodilator FEV1 observed, median", "setting": "75 mg/day, Week 4", "result": 2.10, "unit": "L"}, {"measurement": "Pre-Bronchodilator Percent Predicted FEV1 % change, mean", "setting": "75 mg/day, Week 4", "result": 62.4, "unit": "%"}, {"measurement": "Pre-Bronchodilator Percent Predicted FEV1 % change, median", "setting": "75 mg/day, Week 4", "result": 4.85, "unit": "%"}, {"measurement": "Pre-Bronchodilator Percent Predicted FEV1 change, mean", "setting": "75 mg/day, Week 4", "result": 3.59, "unit": "%"}, {"measurement": "Pre-Bronchodilator Percent Predicted FEV1 change, median", "setting": "75 mg/day, Week 4", "result": 2.69, "unit": "%"}, {"measurement": "Pre-Bronchodilator Percent Predicted FEV1 observed, mean", "setting": "75 mg/day, Week 4", "result": 62.2, "unit": "%"}, {"measurement": "Pre-Bronchodilator Percent Predicted FEV1 observed, median", "setting": "75 mg/day, Week 4", "result": 64.4, "unit": "%"}, {"measurement": "FEV1 change from Baseline LSM", "setting": "75 mg/day, Week 8", "result": 0.204, "unit": "L"}, {"measurement": "FEV1 difference versus Placebo LSM", "setting": "75 mg/day, Week 8", "result": 0.210, "unit": "L"}, {"measurement": "Pre-Bronchodilator FEV1, % change from Baseline, mean", "setting": "75 mg/day, Week 8", "result": 12.0, "unit": "%"}, {"measurement": "FEV1 change from Baseline LSM", "setting": "75 mg/day, Week 12", "result": 0.168, "unit": "L"}, {"measurement": "FEV1 difference versus Placebo LSM", "setting": "75 mg/day, Week 12", "result": 0.121, "unit": "L"}, {"measurement": "Pre-Bronchodilator FEV1, % change from Baseline, mean", "setting": "75 mg/day, Week 12", "result": 9.27, "unit": "%"}, {"measurement": "FEV1 change from Baseline LSM", "setting": "75 mg/day, Week 16 or Week 18", "result": 0.295, "unit": "L"}, {"measurement": "FEV1 difference versus Placebo LSM", "setting": "75 mg/day, Week 16 or Week 18", "result": 0.327, "unit": "L"}, {"measurement": "Pre-Bronchodilator FEV1, % change from Baseline, mean", "setting": "75 mg/day, Week 16 or Week 18", "result": 17.6, "unit": "%"}, {"measurement": "ΔFEV1 vs Placebo LSM (SEM), pooled data", "setting": "75 mg/day, Weeks 4, 8, 12, & 16/18 pooled", "result": 206, "unit": "mL"}, {"measurement": "Pre-Bronchodilator FEV1 % change, mean", "setting": "[3]", "result": 7.57, "unit": "%"}, {"measurement": "Pre-Bronchodilator FEV1 % change, median", "setting": "[3]", "result": 3.88, "unit": "%"}, {"measurement": "Pre-Bronchodilator FEV1 change, mean", "setting": "[3]", "result": 0.130, "unit": "L"}, {"measurement": "Pre-Bronchodilator FEV1 change, median", "setting": "[3]", "result": 0.0900, "unit": "L"}, {"measurement": "Pre-Bronchodilator FEV1 observed, mean", "setting": "[3]", "result": 2.21, "unit": "L"}, {"measurement": "Pre-Bronchodilator FEV1 observed, median", "setting": "[3]", "result": 2.22, "unit": "L"}, {"measurement": "Pre-Bronchodilator FEV1 % change, mean", "setting": "[4]", "result": 3.14, "unit": "%"}, {"measurement": "Pre-Bronchodilator FEV1 % change, median", "setting": "[4]", "result": "−1.72", "unit": "%"}, {"measurement": "Pre-Bronchodilator FEV1 change, mean", "setting": "[4]", "result": 0.0414, "unit": "L"}, {"measurement": "Pre-Bronchodilator FEV1 change, median", "setting": "[4]", "result": -0.0400, "unit": "L"}, {"measurement": "Pre-Bronchodilator FEV1 observed, mean", "setting": "[4]", "result": 2.12, "unit": "L"}, {"measurement": "Pre-Bronchodilator FEV1 observed, median", "setting": "[4]", "result": 2.11, "unit": "L"}, {"measurement": "FEV1 change from Baseline LSM", "setting": "150 mg/day, Week 4", "result": 0.151, "unit": "L"}, {"measurement": "FEV1 difference versus Placebo LSM", "setting": "150 mg/day, Week 4", "result": 0.166, "unit": "L"}, {"measurement": "Pre-Bronchodilator FEV1 % change, median", "setting": "150 mg/day, Week 4", "result": 4.54, "unit": "%"}, {"measurement": "Pre-Bronchodilator FEV1, % change from Baseline, mean", "setting": "150 mg/day, Week 4", "result": 7.31, "unit": "%"}, {"measurement": "Pre-Bronchodilator FEV1 change, mean", "setting": "150 mg/day, Week 4", "result": 0.123, "unit": "L"}, {"measurement": "Pre-Bronchodilator FEV1 change, median", "setting": "150 mg/day, Week 4", "result": 0.0800, "unit": "L"}, {"measurement": "Pre-Bronchodilator FEV1 observed, mean", "setting": "150 mg/day, Week 4", "result": 2.15, "unit": "L"}, {"measurement": "Pre-Bronchodilator FEV1 observed, median", "setting": "150 mg/day, Week 4", "result": 2.05, "unit": "L"}, {"measurement": "Pre-Bronchodilator Percent Predicted FEV1 % change, mean", "setting": "150 mg/day, Week 4", "result": 7.31, "unit": "%"}, {"measurement": "Pre-Bronchodilator Percent Predicted FEV1 % change, median", "setting": "150 mg/day, Week 4", "result": 4.54, "unit": "%"}, {"measurement": "Pre-Bronchodilator Percent Predicted FEV1 change, mean", "setting": "150 mg/day, Week 4", "result": 3.95, "unit": "%"}, {"measurement": "Pre-Bronchodilator Percent Predicted FEV1 change, median", "setting": "150 mg/day, Week 4", "result": 2.85, "unit": "%"}, {"measurement": "Pre-Bronchodilator Percent Predicted FEV1 observed, mean", "setting": "150 mg/day, Week 4", "result": 67.4, "unit": "%"}, {"measurement": "Pre-Bronchodilator Percent Predicted FEV1 observed, median", "setting": "150 mg/day, Week 4", "result": 69.2, "unit": "%"}, {"measurement": "FEV1 change from Baseline LSM", "setting": "150 mg/day, Week 8", "result": 0.166, "unit": "L"}, {"measurement": "FEV1 difference versus Placebo LSM", "setting": "150 mg/day, Week 8", "result": 0.173, "unit": "L"}]}
